This is an account of results in ChEMBL document CHEMBL3507680, “University of Dundee, Gates Library screen for HepG2 cell viability”.

The nature of the series: Human HepG2 cell viability assay in 384 well format. Format: toxicity, cell-based. Further details: dose 125 nL, time 70.5 hour; cytotoxicity at 70.5 h: concentration not given beside the values. To be noted: HepG2 cells, read-out: Inhibition.

Regarding `CCOc1cccc(C(=O)Nc2ccncc2)c1`, the cytotoxicity at 70.5 h was -8.85%.
The value for `CCOC1CCN(C(=O)c2cc(-c3ccc(Cl)cc3)on2)CC1` was -5.56%; that for `COCCn1ccc(NC(=O)Nc2ccccn2)n1` was -10%.
To `CC1CCC(NC(=O)Nc2ccc(CC(=O)N(C)C)cc2)CC1` (stereo unspecified) belongs -5.4%; to `CN(C(=O)Cc1ccc(NC(=O)NC2CC2)cc1)c1ccccc1`, 19.9%; to `COCCn1ccc(NC(=O)Nc2ccccc2)n1`, -2.83%.
To `COCCn1ccc2cc(NC(=O)N(C)C(C)CSC)ccc21` (stereo unspecified) belongs 1.74%.
For `O=C(c1cc2ccccc2c(=O)[nH]1)N1CCN(CCO)CC1`, the cytotoxicity at 70.5 h is -4.06%.
To `O=C(Nc1ccc2ncccc2c1)C1CC(=O)N(Cc2ccccn2)C1` (stereo unspecified) belongs -4.54%; to `CC(NC(=O)c1ccnn1C)c1ccc(OCC2CC2)c(F)c1` (stereo unspecified), 10.9%.
To `COc1ccc(S(=O)(=O)NC(=O)c2c(C)noc2C(C)C)cc1C` belongs -5.8%; to `CCN(Cc1cccc(F)c1)S(=O)(=O)N1CCOCC1`, 0.239%; to `CN(C(=O)Cc1ccc2c(c1)OCCO2)C1CCCCC1`, -1.71%.
The value for `Cc1ccccc1OCCCC(=O)N(C)CCC#N` was -5.57%.
Take `CCc1nccn1C1CCCN(C(=O)c2ccc(N(C)C)nn2)C1` (stereo unspecified): the cytotoxicity at 70.5 h is -7.7%.
Consider `CCc1nccn1C1CCCN(C(=O)c2ccn(-c3ccccc3)n2)C1` (stereo unspecified), for which the cytotoxicity at 70.5 h was -1.19%.
The value for `COc1ccc(N2CCCN(C(=O)Cc3csc(C)n3)CC2)cc1` was 0.0529%; that for `CC(C(=O)N1CCCC1)N1CCCN(C(=O)Oc2ccccc2)CC1` (stereo unspecified) was -10.6%.
Turning to `CCn1c(C)cc(C(=O)N2CCCC(n3ccnc3C)C2)c1C` (stereo unspecified), the cytotoxicity at 70.5 h is -6.2%.
The value for `NCC(c1ccc(Cl)cc1)N1CCc2sccc2C1` (stereo unspecified) was 7.32%; that for `Cc1ccc(C(=O)NCCCNS(C)(=O)=O)cc1C` was -9.61%.
The value for `CCOC(=O)c1c(NC(=O)CN2CCN(C(C)=O)CC2)sc(C)c1C` was -13.3%.
To `Cc1ccc(C(=O)NCCCN(C)S(C)(=O)=O)cc1-n1cccc1` belongs -8.22%; to `CC(C)C(C)NC(=O)Nc1ccc(CC(N)=O)cc1` (stereo unspecified), -3.59%; to `Cc1ccc(C(=O)NS(C)(=O)=O)cc1-n1cccc1`, -6.32%.
On to `Cc1ccc(C(=O)N(C)Cc2nccn2CC(F)(F)F)cn1`, for which the cytotoxicity at 70.5 h is -13.5%.
To `COCCNC(=O)NC(C)COc1ccc(F)cc1F` (stereo unspecified) belongs -0.107%; to `Cc1cnn(CC2CCCCN2C(=O)Cc2c(C)noc2Cl)c1` (stereo unspecified), 24.1%; to `Cc1cnn(CC2CCCCN2C(=O)Cc2c(C)noc2C)c1` (stereo unspecified), -9.25%.
The value for `O=C(CN1CCCC1CCCO)NCc1ccccn1` (stereo unspecified) was 1.57%; that for `COc1cccc2c1OCC(NC(=O)NCCC(N)=O)C2` (stereo unspecified) was -7.75%.
Regarding `Cc1cc(C)n(CCCNC(=O)C(C)NC(=O)CC2CCCCC2)n1` (stereo unspecified), the cytotoxicity at 70.5 h is -5.96%.
Turning to `CCCc1n[nH]c(C2CN(C(=O)c3cc(C4CC4)on3)CCO2)n1` (stereo unspecified), the cytotoxicity at 70.5 h is -10.9%.
To `CNS(=O)(=O)c1cc(C(=O)NC2COc3ccccc32)cc(C)c1C` (stereo unspecified) belongs -13.5%; to `O=C(NCCc1nnc2n1CCC2)NCC1(c2ccc(F)cc2)CC1`, -7.03%; to `Cn1cc(CC2CCN(C(=O)NCCCc3ccc(O)cc3)C2)cn1` (stereo unspecified), -9.85%.
Regarding `CCCc1noc(CCC(=O)N2CCCC2Cn2cc(C)cn2)n1` (stereo unspecified), the cytotoxicity at 70.5 h is -10.8%.
On to `CCC(=O)NCC(c1ccc(SC)cc1)N1CCc2sccc2C1` (stereo unspecified), for which the cytotoxicity at 70.5 h is -8.32%.
To `COC(=O)c1ccoc1CN(C)Cc1ccccc1` belongs -0.994%; to `COCCOCC(=O)Nc1ccc(C)cc1Br`, -3.99%.
The value for `COc1ccccc1CC(C)(C)NC(=O)CNS(C)(=O)=O` was -2.04%.
